We go through 23 molecules from patent US10730865B2, “Compounds for modulating aquaporins” (APOGLYX AB, priority 2016, dated 2020).

For the assay, the target named is human aquaporin 9 (Homo sapiens (Human), UniProt O43315). Nature of the assay: Calcein quenching fluostar assay (inhibition of human aquaporin 9). The format is cell-based. Conditions: Human AQP9 cell line; example compounds used as 1 mM stock solutions in DMSO. On the procedure: Calcein Quenching Fluostar Assay
Chain of human aquaporin 9 (O43315 whole entry): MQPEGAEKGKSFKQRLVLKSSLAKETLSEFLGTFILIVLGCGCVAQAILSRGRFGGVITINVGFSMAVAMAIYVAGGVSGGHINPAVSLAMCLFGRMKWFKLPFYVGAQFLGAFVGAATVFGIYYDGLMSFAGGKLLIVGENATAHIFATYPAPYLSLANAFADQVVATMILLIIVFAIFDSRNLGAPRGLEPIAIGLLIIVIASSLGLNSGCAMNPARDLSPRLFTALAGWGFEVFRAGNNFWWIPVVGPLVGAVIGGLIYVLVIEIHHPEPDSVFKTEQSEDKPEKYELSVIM
A calcein quenching fluostar assay was performed in order to investigate the biological activity of the newly synthesized examples 1 to 57. This type of assay is disclosed in J. Biol. Chem., 2011, 286, 44319-44325 and Am. J. Physiol. Renal Physiol. (2010), 298, F224-230.
1) Two days prior to commencement of the assay, seed 10,000 cells/well of 96 well black clear bottom plate (Greiner Poly-lysin plate). A 1:1 mix of Dulbecco's Modified Eagle's Medium: Nutrient Mixture F-12 (DMEM: F12) was obtained from Gibco. Tetracycline stock of 5 mg/ml in 96% ethanol is used. Medium: DMEM/F12/10% Donor Bovine Serum, Human AQP9 cell line+1:270,000 tetracyclin, mouse AQP9 cell line+1:2,700,000 tetracycline.
2) Day of assay: Flick/slam off the medium and add 50 μl/well of loading solution: 5 ml DMEM/F12/10% Donor Bovine Serum, 25 μl Calcein AM—from freshly dissolved aliquot in 50 μl DMSO (VWR #734-1434), and 100 μl Probenecid.
3) Incubate the well for 90 minutes at 37° C.
4) Perform one wash with 75 μl wash buffer.
5) Add 75 μl of an example compound prepared in wash buffer per well.
Example compounds are prepared in 500 μl U bottom PP plates (NUNC). 2.7 μl Substance in DMSO are added to row A; 180 μl of wash buffer+1% DMSO are added to rows B—H. 90 μl from row A are transferred and mixed with all other wells (up to row G) to make a 3-fold dilution series.
6) Assay in FLUOstar Optima at 25° C. Settings buffer addition at 135 μl/seconds, add 75 μl/well, record time course for 30 seconds, add sucrose buffer 3.6 seconds into recording.
7) Normalization to initial in Excel.
8) Fit to “exponential decay” function in GraphPad Prism 5.0, then arrange half live shrinking values according to wells and fit dose-response curves.
With `CCCc1ccc(-c2nnc(NC(=O)CSc3nnc(CCOC)n3CC)s2)cc1` [Example 24, 2-{[4-ethyl-5-(2-methoxyethyl)-4H-1,2,4-triazol-3-yl]sulfanyl}-N-[5-(4-propylphenyl)-1,3,4-thiadiazol-2-yl]acetamide], the EC50 was 41 nM and the pEC50 in the inhibition of human aquaporin 9 is 7.4.
Take `CCOc1ccc(-c2nnc(NC(=O)CSc3nnc(CC)n3CC)s2)cc1` [Example 25, 2-[(diethyl-4H-1,2,4-triazol-3-yl)sulfanyl]-N-[5-(4-ethoxyphenyl)-1,3,4-thiadiazol-2-yl]acetamide]: the half-maximal effective concentration (EC50) was 42 nM.
The same measure, in the same setting: as for `CCc1nnc(SCC(=O)Nc2nnc(-c3ccc(OCCF)cc3)s2)n1CC` [Example 26, 2-[(diethyl-4H-1,2,4-triazol-3-yl)sulfanyl]-N-{5-[4-(2-fluoroethoxy)phenyl]-1,3,4-thiadiazol-2-yl}acetamide], the figure is 43 nM.
Regarding `CCOc1ccc(-c2nnc(NC(=O)CSc3nnc(C(C)C)n3CC)s2)cc1` [Example 27, N-[5-(4-ethoxyphenyl)-1,3,4-thiadiazol-2-yl]-2-{[4-ethyl-5-(propan-2-yl)-4H-1,2,4-triazol-3-yl]sulfanyl}acetamide], the EC50 was 69 nM.
On the same count and under the same terms, to `CCn1c(SCC(=O)Nc2nnc(-c3ccc(OCCF)cc3)s2)nnc1C(C)C` [Example 28, 2-{[4-ethyl-5-(propan-2-yl)-4H-1,2,4-triazol-3-yl]sulfanyl}-N-{5-[4-(2-fluoroethoxy)phenyl]-1,3,4-thiadiazol-2-yl}acetamide] belongs 44 nM.
The same measure, in the same setting: to `CCn1c(SCC(=O)Nc2nnc(-c3ccc(OC(C)C)cc3)s2)nnc1C(C)C` [Example 29, 2-{[4-ethyl-5-(propan-2-yl)-4H-1,2,4-triazol-3-yl]sulfanyl}-N-{5-[4-(propan-2-yloxy)phenyl]-1,3,4-thiadiazol-2-yl}acetamide] belongs 90 nM; to `CCc1nnc(SCC(=O)Nc2nnc(-c3ccc(OCCOC)cc3)s2)n1CC` [Example 30, 2-[(diethyl-4H-1,2,4-triazol-3-yl)sulfanyl]-N-{5-[4-(2-methoxyethoxy)phenyl]-1,3,4-thiadiazol-2-yl}acetamide], 21 nM.
Same read-out and setting: as for `CCn1c(SCC(=O)Nc2nnc(-c3ccc(OCCOC)cc3)s2)nnc1C(C)C` [Example 31, 2-{[4-ethyl-5-(propan-2-yl)-4H-1,2,4-triazol-3-yl]sulfanyl}-N-{5-[4-(2-methoxyethoxy)phenyl]-1,3,4-thiadiazol-2-yl}acetamide], the figure is 37 nM; as for `CCc1nnc(SCC(=O)Nc2nnc(-c3ccc(C#N)cc3)s2)n1CC` [Example 32, N-[5-(4-cyanophenyl)-1,3,4-thiadiazol-2-yl]-2-[(4,5-diethyl-4H-1,2,4-triazol-3-yl)sulfanyl]acetamide], 43 nM; as for `CCc1nnc(SCC(=O)Nc2nnc(-c3ccc(C(F)(F)F)cc3)s2)n1CC` [Example 33, 2-[(4,5-diethyl-4H-1,2,4-triazol-3-yl)sulfanyl]-N-[5-(4-(trifluoromethyl)phenyl)-1,3,4-thiadiazol-2-yl]acetamide], 119 nM.
`CCc1nnc(SCC(=O)Nc2nnc(-c3ccc(OC(C)C)cc3)s2)n1CC` [Example 34, 2-[(4,5-diethyl-4H-1,2,4-triazol-3-yl)sulfanyl]-N-[5-(4-isopropoxyphenyl)-1,3,4-thiadiazol-2-yl]acetamide]: the EC50 was 55 nM.
Still for that read-out and setting: to `CCc1nnc(SCC(=O)Nc2nnc(-c3ccc(Cl)cc3)s2)n1CC` [Example 35, N-[5-(4-chlorophenyl)-1,3,4-thiadiazol-2-yl]-2-[(4,5-diethyl-4H-1,2,4-triazol-3-yl)sulfanyl]acetamide] belongs 54 nM.
On to `CCc1nnc(SCC(=O)Nc2nnc(-c3ccc(OC)cc3)s2)n1C1CC1` [Example 36, 2-[(4-cyclopropyl-5-ethyl-4H-1,2,4-triazol-3-yl)sulfanyl]-N-[5-(4-methoxyphenyl)-1,3,4-thiadiazol-2-yl]acetamide], for which the EC50 was 51 nM and the pEC50 in the inhibition of human aquaporin 9 is 7.3.
On the same counts, the results for `CCn1c(Cc2cccc(F)c2)nnc1SCC(=O)Nc1nnc(-c2ccc(OC)cc2)s1` [Example 37, 2-[(4-ethyl-5-(3-fluorobenzyl)-4H-1,2,4-triazol-3-yl)sulfanyl]-N-[5-(4-methoxyphenyl)-1,3,4-thiadiazol-2-yl]acetamide] are 132 nM and 6.9.
On the same counts, the results for `CCn1c(SCC(=O)Nc2nnc(-c3ccc(O)cc3)s2)nnc1C1CC1` [Example 38, 2-[(5-cyclopropyl-4-ethyl-4H-1,2,4-triazol-3-yl)sulfanyl]-N-[5-(4-hydroxyphenyl)-1,3,4-thiadiazol-2-yl]acetamide] are 81 nM and 7.1.
`CCc1nnc(SCC(=O)Nc2nnc(-c3ccc(S(C)(=O)=O)cc3)s2)n1C1CC1` [Example 39, 2-[(4-cyclopropyl-5-ethyl-4H-1,2,4-triazol-3-yl)sulfanyl]-N-[5-(4-(methylsulfonyl)phenyl)-1,3,4-thiadiazol-2-yl]acetamide]: the EC50 is 135 nM.
On the same count and under the same terms, as for `CCc1nnc(SCC(=O)Nc2nnc(-c3ccc(OC)cc3)s2)n1CCCO` [Example 40, 2-[(5-ethyl-4-(3-hydroxypropyl)-4H-1,2,4-triazol-3-yl)sulfanyl]-N-[5-(4-methoxyphenyl)-1,3,4-thiadiazol-2-yl]acetamide], the figure is 168 nM.
With `CCc1nnc(SCC(=O)Nc2nnc(-c3ccc(S(C)(=O)=O)cc3)s2)n1C` [Example 41, 2-[(5-ethyl-4-methyl-4H-1,2,4-triazol-3-yl)sulfanyl]-N-[5-(4-(methylsulfonyl)phenyl)-1,3,4-thiadiazol-2-yl]acetamide], the EC50 is 490 nM and the pEC50 in the inhibition of human aquaporin 9 is 6.3.
Taken in the same sequence, the figures for `CCc1nnc(SCC(=O)Nc2nnc(-c3ccc(S(C)(=O)=O)cc3)s2)n1C(C)C` [Example 42, 2-[(5-ethyl-4-isopropyl-4H-1,2,4-triazol-3-yl)sulfanyl]-N-[5-(4-(methylsulfonyl)phenyl)-1,3,4-thiadiazol-2-yl]acetamide] were 76 nM and 7.1.
Take `CCn1c(SCC(=O)Nc2nnc(-c3ccc(OCCOC)cc3)s2)nnc1C1CC1` [Example 43, 2-[(5-cyclopropyl-4-ethyl-4H-1,2,4-triazol-3-yl)sulfanyl]-N-[5-(4-(2-methoxyethoxy)phenyl)-1,3,4-thiadiazol-2-yl]acetamide]: the EC50 is 52 nM.
Take `CCn1c(CCOC)nnc1SCC(=O)Nc1nnc(-c2ccc(OC)cc2)s1` [Example 44, 2-[(4-ethyl-5-(2-methoxyethyl)-4H-1,2,4-triazol-3-yl)sulfanyl]-N-[5-(4-methoxyphenyl)-1,3,4-thiadiazol-2-yl]acetamide]: the 50% effective concentration (EC50) is 457 nM.
As to `CCn1c(SCC(=O)Nc2nnc(-c3ccc(S(C)(=O)=O)cc3)s2)nnc1C1CCCC1` [Example 45, (2-[(5-cyclopentyl-4-ethyl-4H-1,2,4-triazol-3-yl)sulfanyl]-N-[5-(4-methanesulfonylphenyl)-1,3,4-thiadiazol-2-yl]acetamide)], the EC50 was 40 nM.
Still for that read-out and setting: as for `CCc1nnc(SCC(=O)Nc2nnc(-c3ccc(OC)cc3)s2)n1CCOC` [Example 46, 2-[(5-ethyl-4-(2-methoxyethyl)-4H-1,2,4-triazol-3-yl)sulfanyl]-N-[5-(4-methoxyphenyl)-1,3,4-thiadiazol-2-yl]acetamide], the figure is 112 nM.
